# According to article PMC7761982, “FDA-Approved Drugs with Potent In Vitro Antiviral Activity against Severe Acute Respiratory Syndrome Coronavirus 2” (Pharmaceuticals, 2020):
# Read-outs that look alike come from different tables or passages of the source.
# What was measured:
# [1] = system: NRC-03-nhCoV; assay: microbe, parasite or virus in culture; type: cell-based, SARS-CoV-2
# [2] = system: NRC-03-nhCoV; assay: Virucidal mechanism, plaque infectivity reduction assay; type: cell-based, SARS-CoV-2; conditions: for virucidal effect: concentration not given
# Method: The virucidal mechanism was assayed following a previously described protocol. In a 6-well plate, Vero-E6 cells were cultivated (10^5 cells/mL) for 24 h at 37 °C and 200 µL of serum-free DMEM containing SARS-CoV-2 was added to each sample with promising inhibition. After 1 h incubation, the mixture was diluted 10-fold three times using serum-free medium, which still allowed viral particles to grow on Vero-E6 cells. Next, 100 µL of each dilution were added to the Vero-E6 cell monolayer. After 1 h contact time, a DMEM overlayer was added to the cell monolayer. Plates were left to solidify and incubated at 37 °C to allow the formation of viral plaques. The plaques were fixed and stained as described above to calculate the percentage reduction in plaque formation. This value was compared to control wells comprising cells infected with virus and not pretreated with the tested material.
# [3] = in vitro; conditions: African green monkey, CC50 (Vero-E6), half maximal cytotoxic concentration, MTT assay, Vero-E6 cells
# [4] = system: MERS-CoV; assay: microbe, parasite or virus in culture; type: cell-based; conditions: for antiviral effect on MERS-CoV compared with SARS-CoV-2: equal concentrations of drug, plaque reduction assay
# [5] = system: SARS-CoV-2; assay: Plaque reduction assay, anti-SARS-CoV-2 activity; type: cell-based; conditions: read-out: viral inhibition, SARS-CoV-2
# [6] = system: NRC-03-nhCoV; assay: Viral adsorption mechanism, plaque infectivity reduction assay; type: cell-based, SARS-CoV-2
# Method: The viral adsorption mechanism was assayed according to a protocol by Zhang and his colleagues with minor modifications. Vero-E6 cells were cultivated in a 6-well plate (10^5 cells/mL) for 24 h at 37 °C. Each tested drug was applied in 200 µL medium without supplements and co-incubated with the cells for 2 h at 4 °C. The inocula containing the non-absorbed drug were removed by washing cells three successive times with supplement-free medium. SARS-CoV-2 virus diluted to 104 PFU/well was co-incubated with the pretreated cells for 1 h, and then 3 mL DMEM supplemented with 2% agarose were added. Plates were left to solidify and then incubated at 37 °C to allow the formation of viral plaques. The plaques were fixed and stained as described above to calculate the percentage reduction in plaque formation compared to control wells, which comprised untreated Vero-E6 cells directly infected with NRC-03-nhCoV.
# [7] = system: SARS-CoV-2; conditions: read-out: IC50 against SARS-CoV-2 (reported); cited from earlier work
# [8] = system: NRC-03-nhCoV; assay: Viral replication mechanism, plaque infectivity reduction assay; type: cell-based, SARS-CoV-2
# Method: The impact of tested drug on viral replication was determined as previously described. Vero-E6 cells were cultivated in a 6-well plate (10^5 cell/mL) for 24 h at 37 °C. Virus was inoculated directly to the cells and incubated for 1 h at 37 °C. The inocula containing the non-adsorbed viral particles were removed by washing cells three successive times with supplement-free medium. The test compound was added in varying concentrations to infected cells for another 1 h contact time. After removing the inocula containing the tested drug, 3 mL of DMEM supplemented with 2% agarose were added to the cell monolayer. Plates were left to solidify and incubated at 37 °C until the appearance of viral plaques. Cell monolayers were fixed in 10% formalin solution for 1 h and stained with crystal violet. Control wells contained Vero-E6 cells incubated with the virus. Plaques were counted and the percentage reduction in plaque formation was compared to the control wells.
# [9] = Severe acute respiratory syndrome coronavirus 2, Vero C1008, 72 h, Vero-E6 cells, 72 h, crystal violet, reduction of virus-induced CPE by 50%, read-out: IC50 (NRC-03-nhCoV)
# [10] = Severe acute respiratory syndrome coronavirus 2, Vero C1008, negative log of the IC50 value against SARS-CoV-2, read-out: pIC50 (converted)
# [11] = Middle East respiratory syndrome-related coronavirus, read-out: viral inhibition, MERS-CoV
# [12] = Severe acute respiratory syndrome coronavirus 2, read-out: Virucidal, percent inhibition
# [13] = Severe acute respiratory syndrome coronavirus 2, read-out: Viral Adsorption, percent inhibition
# [14] = Severe acute respiratory syndrome coronavirus 2, read-out: Viral Replication, percent inhibition
Structure (SMILES),"IC50 [1, 9]","IC50 [1, 10]",virucidal effect [2],CC50 [3],"inhibition at 1.302 µM [2, 12]","inhibition at 2.6 µM [2, 12]","inhibition at 5.2 µM [2, 12]","inhibition at 10.4 µM [2, 12]",antiviral effect on MERS-CoV compared with SARS-CoV-2 [4],"inhibition at 1.302 µM [6, 13]","inhibition at 2.6 µM [6, 13]","inhibition at 5.2 µM [6, 13]","inhibition at 10.4 µM [6, 13]","inhibition at 1.302 µM [8, 14]","inhibition at 2.6 µM [8, 14]",also measured
CC[C@H]1OC(=O)[C@H](C)[C@@H](O[C@H]2C[C@@](C)(OC)[C@@H](O)[C@H](C)O2)[C@H](C)[C@@H](O[C@@H]2O[C@H](C)C[C@H](N(C)C)[C@H]2O)[C@](C)(O)C[C@@H](C)CN(C)[C@H](C)[C@@H](O)[C@]1(C)O [Azithromycin],0.32 µM,0.324 µM,up to 51%,793 µM,,,,,,,,,,,,"inhibition at 0.16 µM ([2]; Severe acute respiratory syndrome coronavirus 2, 0.16 µM, read-out: Virucidal, percent inhibition): 12%; inhibition at 0.322 µM ([2]; Severe acute respiratory syndrome coronavirus 2, 0.322 µM, read-out: Virucidal, percent inhibition): 34%; inhibition at 0.64 µM ([2]; Severe acute respiratory syndrome coronavirus 2, 0.64 µM, read-out: Virucidal, percent inhibition): 51%; inhibition at 1.3 µM ([2]; Severe acute respiratory syndrome coronavirus 2, 1.3 µM, read-out: Virucidal, percent inhibition): 51%; inhibition at 5 µM [4, 11]: ~20%; inhibition at 10 µM [4, 11]: ~30%; inhibition at 5 µM ([5]; Severe acute respiratory syndrome coronavirus 2, 5 µM (lowest concentration tested)): ~80%; inhibition at 10 µM ([5]; Severe acute respiratory syndrome coronavirus 2, 10 µM (highest concentration tested)): ~90%; inhibition at 0.16 µM ([6]; Severe acute respiratory syndrome coronavirus 2, 0.16 µM, read-out: Viral Adsorption, percent inhibition): 0%; inhibition at 0.322 µM ([6]; Severe acute respiratory syndrome coronavirus 2, 0.322 µM, read-out: Viral Adsorption, percent inhibition): 2%; inhibition at 0.64 µM ([6]; Severe acute respiratory syndrome coronavirus 2, 0.64 µM, read-out: Viral Adsorption, percent inhibition): 27%; inhibition at 1.3 µM ([6]; Severe acute respiratory syndrome coronavirus 2, 1.3 µM, read-out: Viral Adsorption, percent inhibition): ≤ 31%; IC50 [7]: 2.12 µM; inhibition at 0.16 µM ([8]; Severe acute respiratory syndrome coronavirus 2, 0.16 µM, read-out: Viral Replication, percent inhibition): 0%; inhibition at 0.322 µM ([8]; Severe acute respiratory syndrome coronavirus 2, 0.322 µM, read-out: Viral Replication, percent inhibition): 0%; inhibition at 0.64 µM ([8]; Severe acute respiratory syndrome coronavirus 2, 0.64 µM, read-out: Viral Replication, percent inhibition): 2%; inhibition at 1.3 µM ([8]; Severe acute respiratory syndrome coronavirus 2, 1.3 µM, read-out: Viral Replication, percent inhibition): 4%; inhibitory effect on virus replication ([8]; concentration not given): negligible effect on viral replication"
O=C(Nc1ccc([N+](=O)[O-])cc1Cl)c1cc(Cl)ccc1O [Niclosamide],0.16 µM,0.162 µM,37%,205 µM,16%,21%,21%,37%,equally effective against SARS-CoV-2 and MERS-CoV,0%,0%,0%,0%,23%,55%,"inhibition during the viral adsorption stage ([6]; concentration not given): negligible reduction in viral inhibition; inhibition at 5.2 µM ([8]; Severe acute respiratory syndrome coronavirus 2, 5.2 µM, read-out: Viral Replication, percent inhibition): 68%; inhibition at 10.4 µM ([8]; Severe acute respiratory syndrome coronavirus 2, 10.4 µM, read-out: Viral Replication, percent inhibition): 70%"
CC(=O)Oc1ccccc1C(=O)Nc1ncc([N+](=O)[O-])s1 [Nitazoxanide],1.29 µM,1.29 µM,,665 µM,39%,61%,75%,78%,equally effective against SARS-CoV-2 and MERS-CoV,0%,1%,11%,11%,35%,40%,"Viral Replication, percent inhibition ([8]; 5.2 µM): Toxic; Viral Replication, percent inhibition ([8]; 10.4 µM): Toxic"
